Blank lines part the entries; values can stand above or below the molecule they belong to.
Experiments:
[1] = system: bone marrow cell-derived osteoclasts (OC formation); assay: In vitro osteoclast formation, count of TRAP-positive multinucleate cells; assay type: cell-based, mouse; details: for OC differentiation in the presence of carbohydrate chain: carbohydrate chain 10 ng/mL, FIG. 8e; for OC formation (number of TRAP-positive MNCs): KS-II 100 ng/mL, FIGS. 8c, 8d
Procedure: Nonadherent bone marrow cells were seeded in a well plate (in a 24-well plate at 5×10^5 cells/well or in a […] at 3×10^6 cells/well) and were cultured in α-MEM (Gibco BRL) containing 10% FCS (manufactured by Biowest AG) and 10 ng/mL M-CSF (manufactured by R&D Systems, Inc.). After two days, nonadherent cells (including lymphocytes) were washed away, and remaining adherent cells were used as bone marrow-derived macrophages (BMMs). These osteoclast precursor cells (pOCs) were further cultured in the presence of 100 ng/mL of soluble RANKL (manufactured by PeproTech Inc. or Oriental Yeast Co., Ltd.) and 10 ng/mL of M-CSF to obtain osteoclasts. After three days, the osteoclasts were fixed in 10% neutral buffered formalin for three minutes, further kept in a mixture of ethanol/acetone (50:50 v:v) for 1 minute and subsequently incubated in a TRAP staining solution (Naphthol AS-MX phosphate: 5 mg, N,N-dimethylformamide: 0.5 mL, fast red violet LB salt: 30 mg, 0.1 M sodium acetate buffer (pH 5.0) containing 50 mM sodium tartrate: 50 mL) at room temperature. The number of TRAP-positive multinucleate cells (MNCs having three or more nuclei) was counted.
(§1) In order to investigate the influence of GM-CSF on osteoclast formation, mouse GM-CSF enzyme immunoassay (manufactured by PerSeptive Biosystems, Inc.), recombinant GM-CSF (manufactured by PeproTech Inc.), and anti-mouse GM-CSF neutralizing antibody (manufactured by R&D Systems, Inc.) were used. Furthermore, in the proliferation assay, pOCs were seeded (in a 96-well plate at 1×10^4 cells/well) and cultured in the presence of 10 ng/mL M-CSF only or M-CSF and 100 ng/mL RANKL or 20 ng/mL GM-CSF for three days. Subsequently, the cells were exposed to [^3H]TdR (0.5 μCi/mL) overnight.

[2] = target: T1, recombinant mouse DCIR (mDCIR) (Mus musculus, UniProt Q9QZ15); assay: Carbohydrate chain binding assay by ELISA; details: KS-II from bovine articular cartilage immobilised on ELISA plate; FIG. 8b
T1 construct: containing an extracellular domain (99th to 238th residues) was expressed as an inclusion body in E. coli; made in house
T1 sequence (Q9QZ15 99-238): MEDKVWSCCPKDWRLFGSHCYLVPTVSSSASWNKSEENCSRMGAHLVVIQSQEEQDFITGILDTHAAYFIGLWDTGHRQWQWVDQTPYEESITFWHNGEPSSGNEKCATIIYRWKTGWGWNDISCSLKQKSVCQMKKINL
Procedure: Carbohydrate chain binding assay was performed in accordance with the method described in J. Bio. Chem., 2004, 279, 29043-29049. KS-II was diluted to 2 mg/mL with 100 mM sodium acetate (pH 5.5) and was oxidized with 2 mM sodium metaperiodate on ice for 1 hour to obtain a reactive aldehyde group. After further dilution, KS-II was incubated on a Covalink ELISA plate at 4° C. overnight and was reduced with 0.3% sodium cyanoborohydride at room temperature for 1.5 hours for covalent bonding. The plate was washed and was blocked with 2% bovine serum albumin (fraction V: manufactured by Sigma Corp.) at 37° C. for two hours. A recombinant mouse DCIR (mDCIR) containing an extracellular domain (99th to 238th residues) was expressed as an inclusion body in E. coli BL21 (DE3) pLysS using a pGMT7 plasmid and the […] was refolded by a typical dilution method. The mDCIR was incubated on the blocked and refolded plate at 4° C. overnight. Binding of protein was detected using anti-DCIR antibodies (a mixture of 320507 and 320511: manufactured by R&D Systems, Inc.) and HRP-linked rat IgG (manufactured by Zymed) in the presence of a TMB substrate (manufactured by Dako).

[3] = target: T2, DCIR (Mus musculus, UniProt Q9QZ15); assay: Immunoprecipitation/immunoblot analysis of DCIR activation in pOC lysate after KS-II stimulation; assay type: cell-based; details: immunoprecipitated with anti-DCIR antibody, FIG. 8f
T2 construct: immunoblot analysis for ITIM phosphorylation and SHP-1 recruitment in pOC lysate after KS-II stimulation; endogenous in cells; host or cells: mouse bone-marrow-derived osteoclast precursor cells (pOC)
T2 sequence (Q9QZ15 1-238): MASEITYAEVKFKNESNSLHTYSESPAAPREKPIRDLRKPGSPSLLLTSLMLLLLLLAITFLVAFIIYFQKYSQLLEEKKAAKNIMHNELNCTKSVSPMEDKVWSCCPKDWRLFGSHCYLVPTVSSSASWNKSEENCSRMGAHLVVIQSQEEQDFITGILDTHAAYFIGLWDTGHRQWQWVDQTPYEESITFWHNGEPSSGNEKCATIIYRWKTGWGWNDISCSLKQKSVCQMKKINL
Excerpt: In immunoprecipitation analysis, Protein G-Sepharose 4 Fast Flow (manufactured by GE Healthcare), mouse DCIR-specific antibody (320511: manufactured by R&D Systems, Inc.), phospho-Tyr (4G10: manufactured by Millipore), and SHP-1 (HG213: Upstate) were used. As the secondary antibody, a rabbit IgG-specific HRP-linked polyclonal antibody (manufactured by Cell Signaling) or a rat IgG-specific HRP-linked polyclonal antibody (manufactured by Zymed) was used.

[4] = system: calvarial OBs; assay: Mineralization of calvarial osteoblasts (alizarin red and ALP staining of osteogenic culture); assay type: cell-based, mouse; details: FIG. 10f
Procedure: Primary osteoblasts were isolated from the calvaria of a new born mouse. The calvaria was washed with PBS and was digested in α-MEM containing 0.25% trypsin and 2 mg/mL collagenase P (manufactured by Roche) at 37° C. for 20 minutes. The supernatant was removed, and the cells were further digested for 60 minutes.
In order to induce osteogenesis, primary osteoblasts (in a 96-well plate at 2×10^4 cells/well, in a 24-well plate at 5×10^4 cells/well, or in a 6-well plate at 2×10^5 cells/well) were cultured to confluent, and the culture medium was replaced by a culture medium containing 10 mM β-glycerophosphate and 50 μg/mL ascorbic acid. The culture medium was replaced three times in 21 days.
The osteoblasts cultured for 21 days were stained with alizarin red, von Kossa, and alkaline phosphatase (ALP).
The culture solution was removed from the osteoblasts cultured for 21 days by using PBS, and the osteoblasts were fixed with 3.7% formalin solution (Nacalai Tesque, Inc.) for 10 minutes. […]
Primary osteoblasts were cultured in a 96-well plate for 21 days and were measured with a TRACP & ALP Assay Kit (TaKaRa Bio Inc.). […] The reaction was terminated with 50 μL of a reaction terminating solution, and subsequently the activity was measured with MICROPLATE READER MTP-300 (CORONA ELECTRIC Co., Ltd.) at OD405.

[5] = system: OPG/RANKL ratio; assay: Real-time RT-PCR of OPG/RANKL ratio in calvarial OBs; assay type: cell-based; details: WT mouse-derived OBs only (not KO); FIGS. 10k, 10l
Procedure: Semi-quantitative RT-PCR and real-time RT-PCR were slightly modified, but basically performed in accordance with the methods described in Nature Medicine, 2008, vol. 14, no. 2: 176-180 and Arthritis Res. Ther., 2006, 8, R100, 1-13. Total RNA was prepared by a typical acid guanidinium thiocyanate-phenol-chloroform method or a method using Sepasol-RNA I Super (manufactured by Nacalai Tesque, Inc.). The prepared RNA was reverse transcribed with SuperScript III First-Strand Synthesis System for RT-PCR (manufactured by Invitrogen) to prepare cDNA.
The real-time RT-PCR was performed using primers shown in Table 1, SYBR Green qPCR kit (manufactured by Invitrogen), and iCycler (manufactured by Bio-Rad Laboratories, Inc.).

[6] = system: TNF-α; assay: TNF-α production in CpG-containing culture, measured by ELISA; assay type: cell-based; details: CpG 1 μM, 12 hours; KS-II 10 ng/mL, versus CpG alone; FIG. 12
Procedure: The anti-DCIR antibodies derived from hybridomas prepared in Example 4 were evaluated for binding ability to DCIR. Since DCIR has been reported to participate in suppression of immunoreaction (Nature Medicine, 2008, vol. 14, no. 2: 176-180), the DCIR-binding ability of each antibody was evaluated using expression of tumor necrosis factor α (TNF-α), which is an inflammatory cytokine, as a standard.
The hybridoma prepared in Example 4 was cultured in a culture medium containing CpG (concentration: 1 μM) for 12 hours, and the culture supernatant was collected. Separately, CpG ODN 1668 (Operon Technologies, Inc.) was cultured in the same medium or a medium further containing keratan sulfate (KS-II: 10 ng/mL), and the culture supernatant was collected. As a control, the cells were cultured in a CpG-free culture medium (NT). The TNF-α amount in each supernatant was measured by ELISA.

[7] = system: osteoclast precursor cells (pOCs); assay: Osteoclast differentiation with hybridoma supernatant or KS-II, count of TRAP-positive osteoclasts; assay type: cell-based; details: KS-II 10 ng/mL; M-CSF 10 ng/mL + RANKL 100 ng/mL, three days; versus untreated; FIG. 13
Procedure: Furthermore, activities of the above-mentioned antibodies on osteoclast formation were evaluated using the activity of keratan sulfate as an indicator. Nonadherent bone marrow cells were seeded in a well plate (a 96-well plate at 1×10^5 cells/well) and were cultured in α-MEM (Gibco BRL) containing 10% FCS (manufactured by Biowest AG) and 10 ng/mL M-CSF (manufactured by R&D Systems, Inc.). After two days, the nonadherent cells (including lymphocytes) were washed away, and the remaining adherent cells were used as bone marrow-derived macrophages (BMMs). These osteoclast precursor cells (pOCs) were further cultured in the presence of 100 ng/mL of soluble RANKL (manufactured by PeproTech Inc. or Oriental Yeast Co., Ltd.) and 10 ng/mL of M-CSF to obtain osteoclasts. During the culturing, the hybridoma supernatant (one-tenth amount) or keratan sulfate (KS-II: 10 ng/mL) was added to the culture medium. After three days, the cells were collected and stained with TRAP. The number of TRAP-positive osteoclasts (having three or more nuclei) was counted. Untreated cells were used as a control (NT).

[8] = system: osteoclast precursor cells (pOCs); assay: Proliferation assay using pOC after GM-CSF stimulation; assay type: cell-based, mouse; details: Dcir−/− pOCs; M-CSF 10 ng/mL and GM-CSF 20 ng/mL
Procedure: as §1

Molecule: chondroitin sulfate A
OC differentiation in the presence of carbohydrate chain [1]: not influenced

binding of recombinant mouse DCIR to KS-II [2]: concentration-dependently binds
phosphorylation of immunoreceptor tyrosine-based inhibitory motif (ITIM) in DCIR [3]: concentration-dependently accelerates
recruitment of tyrosine phosphatase SHP-1 in DCIR [3]: concentration-dependently accelerates
Molecule: keratan sulfate-II [KS-II]
OC formation (number of TRAP-positive MNCs) ([1]; Dcir−/− cell culture): did not inhibit
OC formation (number of TRAP-positive MNCs) ([1]; wild-type (WT) bone marrow cell culture): considerably inhibited
mineralization of OBs ([4]; Dcir−/− OBs): does not suppress
mineralization of OBs ([4]; WT OBs): suppresses
OPG/RANKL ratio [5]: decreases
TNF-α production [6]: suppressed
differentiation to osteoclast (TRAP-positive, three or more nuclei) [7]: suppressed

Molecule: CC(=O)N[C@H]1C(O)O[C@H](CO)[C@@H](O[C@@H]2O[C@H](CO)[C@H](O)[C@H](O)[C@H]2O)[C@@H]1O (some centres unmarked) [LacNAc, N-acetyllactosamine]
OC differentiation in the presence of carbohydrate chain [1]: not influenced

Molecule: dermatan sulfate
OC differentiation in the presence of carbohydrate chain [1]: not influenced

B1: GM-CSF: recombinant mouse GM-CSF (manufactured by PeproTech Inc.) (protein, UniProt P01587 18-141, looked up)
Granulocyte-macrophage …: APTRSPITVTRPWKHVEAIKEALNLLDDMPVTLNEEVEVVSNEFSFKKLTCVQTRLKIFEQGLRGNFTKLKGALNMTASYYQTYCPPTPETDCETQVTTYADFIDSLKTFLTDIPFECKKPGQK
proliferation of pOCs [8]: significantly increased

From patent publication US20130058957A1, “DENDRITIC CELL IMMUNORECEPTOR AGONIST” (THE UNIVERSITY OF TOKYO, priority 2010, published 2013)
